Reference: article PMC8682738, “Constrained peptides mimic a viral suppressor of RNA silencing” (Nucleic Acids Research, 2021)
Positions of bridges follow the written chain, without caps; N, C: chain ends. Non-standard residues stand in square brackets, D forms with d. Residues, ends and D or L forms follow the SMILES beside them. *: point of attachment. FITC = O=C1OC2(c3ccc(O)cc3Oc3cc(O)ccc32)c2ccc(NC(=S)*)cc21; S5 = C=CCCC[C@](C)(N)C(=O)O; AEEA = NCCOCCOCC(=O)O

Tests used:
Assay type in all cases: binding
[1] = tested on: ds RNA hairpins HP 1–5; experiment: EMSA with ds RNA hairpins HP 1-5; conditions: fluorescein-labeled B3 2 μM, hairpin RNA 1 μM, TAE and 10% glycerol, RT 1 h
Procedure: Electrophoretic mobility shift assays (EMSAs) were performed using a Bio-Rad Mini-Protean gel system paired with a direct current (DC) power source (PowerPac™ HC, Bio-Rad). Typically, 6 μl solutions containing ds RNA (c = 3 μM) and fluorescein-labeled peptide (c = 6 μM) were incubated in binding buffer (10 mM Tris (pH 8.0), 0.5 mM EDTA, 12.5% glycerol and 150 mM KCl) at 4°C for 1 h. After incubation, bound RNA was resolved from peptide-free RNA using 10% non-denaturing polyacrylamide gels at 120 V in running buffer (25 mM Tris (pH 8.0), 200 mM glycine, 20 mM NaCl) at 4°C for 1 h. Visualization of fluorescent gel-bound species was conducted using a Typhoon Trio + fluorescence scanner (GE Healthcare Life Sciences). For nucleic acid visualization, gels were stained using 2 μl of SYBR™ gold nucleic acid gel dye (Molecular Probes) in 20 ml of TAE buffer (40 mM Tris, 1 mM EDTA, 20 mM acetic acid) for 45 min at RT before being visualized using a FluorChem™ gel documentation system (Alpha Innotech). To assess B3 binding to different ds RNA sequences (Supplementary Figure S20), 6 μl solutions containing hairpin RNA (c = 1 μM) and fluorescein-labeled B3 (c = 2 μM) were incubated in binding buffer (TAE and 10% glycerol) at RT for 1 h, and then resolved using 15% non-denaturing polyacrylamide gels (acrylamide/bis-acrylamide (19:1) in TAE) at 150 V in running buffer (TAE) at 4°C for 1.5 h. […]

[2] = target: pre-miR-21; experiment: ITC with pre-miR-21
Procedure: (§1) Isothermal titration calorimetry (ITC) was conducted using a MicroCal VP-ITC (Malvern Panalytical). Before measurement, oligonucleotide and peptide samples were dissolved in PBS and degassed using a ThermoVac (Malvern Panalytical) and heated to 30°C. N-terminally acetylated peptides (c = 3–12 μM) were then transferred into the sample cell and oligonucleotides (c = 12–72 μM) were transferred into the syringe. 35 Injections per measurement were performed at 30°C (8 μl injection volume, 2 s injection time, 180 s spacing, high feedback mode) with an initial delay of 60 s and a stirring speed of 307 rpm. Measurements were performed in triplicate. Using the MicroCal LLC ITC software (Origin; OriginLab Corporation), the heat associated with each injection was calculated by integrating the area under the curve in microcalories per second [μca/s] versus time [min] for each injection and then normalized to concentration. A ‘single set of identical binding sites’ model was used to fit the binding curves from which thermodynamic binding parameters (ΔG, ΔH, ΔS, N and Kd) were obtained.

[3] = target: ds miR-21; experiment: ITC with ds miR-21
Procedure: as §1

## CC(C)C[C@H](NC(=O)[C@]1(C)CCCC=CCCC[C@](C)(NC(=O)[C@H](CCC(=O)O)NC(=O)[C@H](CO)NC(=O)[C@@H]2CCCN2C(=O)[C@H](CO)NC(=O)[C@H](CCCCN)NC(=O)[C@H](Cc2c[nH]cn2)NC(=O)CNC(=O)[C@H](CCCNC(=N)N)NC(=O)[C@]2(C)CCCC=CCCC[C@](C)(NC(=O)[C@H](CCCCN)NC(=O)[C@H](Cc3c[nH]cn3)NC(=O)[C@H](CCCNC(=N)N)NC(=O)[C@H](CCCCN)NC(=O)[C@H](CCCNC(=N)N)NC(=O)[C@H](CCC(N)=O)NC(=O)[C@H](C)NC(=O)[C@H](CCC(N)=O)NC(=O)[C@H](CCCCN)NC(=O)[C@H](CCCCN)NC(=O)COCCOCCNC(=S)Nc3ccc4c(c3)C(=O)OC43c4ccc(O)cc4Oc4cc(O)ccc43)C(=O)N[C@@H](CC(N)=O)C(=O)N[C@@H](CCCNC(=N)N)C(=O)N[C@@H](CCCCN)C(=O)N2)C(=O)N[C@@H](CCCNC(=N)N)C(=O)N[C@@H](CCCNC(=N)N)C(=O)N[C@@H](CO)C(=O)N1)C(=O)N[C@@H](Cc1c[nH]c2ccccc12)C(=O)N[C@@H](Cc1c[nH]cn1)C(=O)N[C@@H](C)C(=O)N[C@@H](CCCNC(=N)N)C(N)=O [B3] ({FITC-AEEA}-KKQAQRKRHK[S5]NRK[S5]RGHKSPSE[S5]RRS[S5]LWHAR-NH2; staple 11-15, 24-28)
[1]
  binding to ds RNA hairpins in EMSA: showed binding to each hairpin
[2]
  Kd: 75 ± 8 nM
[3]
  Kd: 18 ± 2 nM
